Test results taken from patent publication US8304384B2, “Caspase-8 and inflammation, infection and wound healing” (Yeda Research and Development Co., Ltd, priority 2006, dated 2012).
Entries after “also recorded” stand apart in the source; their conditions may differ.

Tests used:
[1] = system: Kupffer cells; assay: Gadolinium chloride treatment after partial hepatectomy (PHx) in Casp8F/-:Alb-Cre mice; format: in vivo; details: 1/3 PHx, 10 mg/kg i.p. on days 10 and 12 after PHx
Procedure: (iii) Partial Hepatectomy and Gadolinium Chloride Administration. Age-matched Casp8^F/−: Alb-Cre mice and Casp8^F/+: Alb-Cre mice were lightly anesthetized with intraperitoneally (i.p.) administered xylazine […] (Chanelle Pharmaceuticals Manufacturing, Loughrea, Galway, Ireland) and ketamine […] (Fort Dodge Animal Health, Fort Dodge, Iowa). It was performed ‘one-third’ (30%) PHx by excising the median lobe of the liver, and ‘two-thirds’ (70%) PHx by excising the median, left, and right upper lobes as described (Higgins et al., 1931 and Greene et al., 2003). Mice were imaged before PHx and afterwards on days 0-56 (every other day during the first week and weekly from then on). On days 10 and 12 after PHx the mice were injected i.p. with gadolinium chloride (Sigma-Aldrich, St. Louis, Mo.) in saline at a dosage of 10 mg/kg.
(iv) MRI Analysis Technique. Magnetic resonance imaging (MRI) experiments were performed using a horizontal 4.7 T Biospec spectrometer (Bruker Medical, Ettlingen, Germany) with a 4.2-cm birdcage coil. Mice were anesthetized (with pentobarbital 30 mg/kg, i.p.) and placed supine with the liver located at the center of the coil. Liver volume was determined from multi-slice coronal and axial T1-weighted spin echo images (repetition time=400 ms; echo time=18 ms; slice thickness=1 mm). In brief, the liver boundary visualized in each slice was outlined using image-processing software (NIH Image). […] The total liver volume was calculated as the summed area of all slices, multiplied by the slice thickness. For each mouse the liver volume was expressed as a percentage of the preoperative liver volume. […]
Cells expressing F4/80 were detected similarly, using rat anti-mouse F4/80 antibody (Serotec Oxford, UK), except that for antigen retrieval the paraffin sections were treated for 3 minutes at room temperature with a solution containing 20 mM Tris (pH 7.5), 0.1% trypsin, and 0.1% calcium chloride. The macrophage content of the livers was determined by quantifying the F4/80 positive areas in the slides using the ImageJ 1.37r software.

[2] = system: Kupffer cells; details: stated as a known fact, no experiment of the patent described; cited from earlier work

Compound: [Cl][Gd]([Cl])[Cl] [gadolinium chloride]
- late (delayed) hepatocyte proliferation, anti-Ki67 stained nuclei in 10 high-power fields ([1]; 14th day after PHx, 10 mg/kg): practically wiped out the increase in hepatocyte proliferation; also recorded: arrest of the delayed hepatocyte proliferation
- liver volume / excessive increase in liver size (hepatomegaly), MRI scans ([1]; 14th day after PHx, 10 mg/kg): curtailed; also recorded: prevention of hepatomegaly
- inflammatory cells (macrophages, anti-F4/80 staining) accumulated in the liver ([1]; liver examined 14 days after PHx): substantially decreasing the inflammatory cells that had accumulated
- hepatocyte proliferation facilitated early after PHx [2]: does not decrease, but rather is enhanced
